ChEMBL document CHEMBL1914361, “Shishicrellastatins, inhibitors of cathepsin B, from the marine sponge Crella (Yvesia) spinulata” (Bioorg Med Chem, 2011)

Target: Cathepsin B (Bos taurus, UniProt P07688)
Experiment: Inhibition of bovine cathepsin B after 1 hr by fluorescence assay

| IC50 | Compound |
| --- | --- |
| 6.81 µM | C[C@H]([C@@H]1C[C@H]2C[C@](C)(OC2(C)C)[C@@H](CC[C@@H](C)[C@H]2CC=C3C4=C(CC[C@@]32C)[C@@]2(C)C[C@H](OS(=O)(=O)O)[C@@H](OS(=O)(=O)O)[C@H](C)C2=CC4)O1)[C@H]1CC[C@H]2C3=C(CC[C@]12C)[C@]12CC[C@](O)(OC1)[C@@H](C)[C@@H]2[C@@H](OS(=O)(=O)O)C3 [SHISHICRELLASTATIN B] |
| 6.79 µM | C[C@H]([C@@H]1C[C@H]2C[C@](C)(OC2(C)C)[C@@H](CC[C@@H](C)[C@H]2CC[C@H]3C4=C(CC[C@]23C)[C@@]2(C)C[C@H](OS(=O)(=O)O)[C@@H](OS(=O)(=O)O)[C@H](C)C2=CC4)O1)[C@H]1CC[C@H]2C3=C(CC[C@]12C)[C@]12CC[C@](O)(OC1)[C@@H](C)[C@@H]2[C@@H](OS(=O)(=O)O)C3 [SHISHICRELLASTATIN A] |
